Results taken from ChEMBL document CHEMBL1137386, “Pyrrolidine carboxamides as a novel class of inhibitors of enoyl acyl carrier protein reductase from Mycobacterium tuberculosis” (J Med Chem, 2006).
Values after ≈ are worked out from the molar mass of the structure shown. Active and inactive are the calls of the source. The calls are words filed in the database; no cut-off is given here.

The molecules below were run against T1, Enoyl-[acyl-carrier-protein] reductase [NADH] (Mycobacterium tuberculosis) (UniProt P9WGR1). Conditions: not given.
T1 sequence (whole entry): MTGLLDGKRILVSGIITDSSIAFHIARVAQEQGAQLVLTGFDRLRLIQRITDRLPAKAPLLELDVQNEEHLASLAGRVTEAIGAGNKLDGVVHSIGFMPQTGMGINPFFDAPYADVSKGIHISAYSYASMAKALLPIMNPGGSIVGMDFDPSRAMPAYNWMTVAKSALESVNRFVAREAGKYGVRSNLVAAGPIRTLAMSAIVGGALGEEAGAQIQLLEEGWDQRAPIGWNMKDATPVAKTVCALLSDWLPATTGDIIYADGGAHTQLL
In the case of `NC(=O)c1cccc(NC(=O)C2CC(=O)N(C3CCCCC3)C2)c1` (configuration not stated), the Activity is reported as “inactive”. `COc1cccc(NC(=O)C2CC(=O)N(C3CCCCC3)C2)c1` (configuration not stated) was tested, and the Activity was “inactive”. With `CS(=O)(=O)Nc1cccc(NC(=O)C2CC(=O)N(C3CCCCC3)C2)c1` (configuration not stated) the Activity was “inactive”. In the case of `CC(=O)c1cccc(NC(=O)C2CC(=O)N(C3CCCCC3)C2)c1` (configuration not stated), the Activity is reported as “inactive”. For `O=C(Nc1cccc(O)c1)C1CC(=O)N(C2CCCCC2)C1` (configuration not stated), the Activity was “inactive”.

Same assay, conditions: concentration not given here
`O=C(C1CC(=O)N(C2CCCCC2)C1)N1CCc2ccccc21` (configuration not stated) was tested, and the inhibition was 65%.

The molecules below were run on Mycobacterium tuberculosis (assay: Antibacterial activity against Mycobacterium tuberculosis H37Rv by alamar blue assay). Conditions: not given.
Format: functional
Molecule `O=C(Nc1cc(Br)cc(C(F)(F)F)c1)C1CC(=O)N(C2CCCCC2)C1` (configuration not stated) has an MIC of 62.5 µM (≈ 27.1 µg/mL). Molecule `CN(Cc1c2ccccc2cc2ccccc12)C(=O)C1CC(=O)N(C2CCCCCCC2)C1` (configuration not stated) has an MIC of 62.5 µM (≈ 27.7 µg/mL). `CN(Cc1c2ccccc2cc2ccccc12)C(=O)C1CC(=O)N(C2CC3CCC2C3)C1` (configuration not stated) gave an MIC of 125 µM (≈ 53.3 µg/mL). `O=C(Nc1cccc(OCc2ccccc2)c1)C1CC(=O)N(C2CCCCC2)C1` (configuration not stated) showed an MIC of 125 µM (≈ 49.1 µg/mL). Molecule `CN(Cc1c2ccccc2cc2ccccc12)C(=O)C1CC(=O)N(C2CCCCC2)C1` (configuration not stated) has an MIC of 125 µM (≈ 51.8 µg/mL). In the case of `CN(Cc1c2ccccc2cc2ccccc12)C(=O)C1CC(=O)N(C2CCCCCC2)C1` (configuration not stated), the MIC is reported as 125 µM (≈ 53.6 µg/mL).

These molecules were tested against T1, Enoyl-[acyl-carrier-protein] reductase [NADH] (Mycobacterium tuberculosis). Conditions: 20 uM.
With `O=C(Nc1nnc(Cc2ccccc2)s1)C1CC(=O)N(C2CCCCC2)C1` (configuration not stated) the Activity was “inactive”. For `CN1CCN(C(=O)C2CC(=O)N(C3CCCCC3)C2)CC1` (configuration not stated), the Activity was “inactive”. `O=C(Nc1nnc(CCc2ccccc2)s1)C1CC(=O)N(C2CCCCC2)C1` (configuration not stated) was tested, and the Activity was “inactive”. With `N#Cc1c(NC(=O)C2CC(=O)N(C3CCCCC3)C2)sc2c1CCCC2` (configuration not stated) the Activity was “inactive”. In the case of `CCc1nnc(NC(=O)C2CC(=O)N(C3CCCCC3)C2)s1` (configuration not stated), the Activity is reported as “inactive”. In the case of `O=C(C1CC(=O)N(C2CCCCC2)C1)N1CCN(c2ccccc2)CC1` (configuration not stated), the Activity is reported as “inactive”. For `CCC(C)NC(=O)C1CC(=O)N(C2CCCCC2)C1` (configuration not stated), the Activity was “inactive”. In the case of `Cc1nnc(NC(=O)C2CC(=O)N(C3CCCCC3)C2)s1` (configuration not stated), the Activity is reported as “inactive”. For `O=C(NC1CCCCC1)C1CC(=O)N(C2CCCCC2)C1` (configuration not stated), the Activity was “inactive”. With `COCc1nnc(NC(=O)C2CC(=O)N(C3CCCCC3)C2)s1` (configuration not stated) the Activity was “inactive”. In the case of `O=C(NC1CCCC1)C1CC(=O)N(C2CCCCC2)C1` (configuration not stated), the Activity is reported as “inactive”. With `O=C(C1CC(=O)N(C2CCCCC2)C1)N1CCOCC1` (configuration not stated) the Activity was “inactive”.

What follows are molecules tested against T2, Enoyl-[acyl-carrier-protein] reductase [NADH] (Mycobacterium tuberculosis, UniProt P9WGR1). Conditions: not given.
T2 sequence (P9WGR1 whole entry): T1 sequence (whole entry)
`O=C(Nc1cc(Br)cc(C(F)(F)F)c1)C1CC(=O)N(C2CCCCC2)C1` (configuration not stated) gave an IC50 of 850 nM. Work on `O=C(Nc1cc(Cl)cc(Cl)c1)C1CC(=O)N(C2CCCCC2)C1` (stereo in doubt; d11b) yielded an IC50 of 200 nM. `O=C(Nc1cc(Cl)cc(Cl)c1)C1CC(=O)N(C2CCCCC2)C1` (stereo in doubt; d11) was tested, and the IC50 was 390 nM. `O=C(Nc1cccc(Br)c1)C1CC(=O)N(c2ccccc2)C1` (configuration not stated) showed an IC50 of 13500 nM. In the case of `O=C(Nc1cc(-c2ccccc2)c(O)c(-c2ccccc2)c1)C1CC(=O)N(C2CCCCCC2)C1` (configuration not stated), the IC50 is reported as 270 nM. With `CN(Cc1c2ccccc2cc2ccccc12)C(=O)C1CC(=O)N(C2CCCCCCC2)C1` (configuration not stated) the IC50 was 620 nM. With `O=C(Nc1cc(Cl)cc(Cl)c1)C1CC(=O)N(C2CCCCC2)C1` (stereo in doubt; d11a) the IC50 was 8160 nM. `O=C(Nc1cccc(-c2ccccc2)c1)C1CC(=O)N(C2CCCCC2)C1` (stereo in doubt; p24a) showed an IC50 of 2100 nM. `O=C(Nc1cccc(Br)c1)C1CC(=O)N(C2CCCCC2)C1` (configuration not stated) showed an IC50 of 890 nM. `CN(Cc1c2ccccc2cc2ccccc12)C(=O)C1CC(=O)N(C2CC3CCC2C3)C1` (configuration not stated) gave an IC50 of 850 nM. In the case of `O=C(Nc1cccc(-c2ccccc2)c1)C1CC(=O)N(C2CC3CCC2C3)C1` (configuration not stated), the IC50 is reported as 460 nM. In the case of `O=C(Nc1cccc(-c2ccccc2)c1)C1CC(=O)N(C2CCCCC2)C1` (stereo in doubt; p24b), the IC50 is reported as 255 nM. With `Cc1ccc(Cl)cc1NC(=O)C1CC(=O)N(C2CCCCC2)C1` (configuration not stated) the IC50 was 970 nM. In the case of `O=C(Nc1cccc(-c2ccccc2)c1)C1CC(=O)N(C2CCCCC2)C1` (stereo in doubt; p24), the IC50 is reported as 390 nM. In the case of `O=C(Nc1cccc(Cc2ccccc2)c1)C1CC(=O)N(C2CCCCC2)C1` (configuration not stated), the IC50 is reported as 410 nM. In the case of `CN(Cc1c2ccccc2cc2ccccc12)C(=O)C1CC(=O)N(C2CCCCC2)C1` (configuration not stated), the IC50 is reported as 750 nM. In the case of `CN(Cc1c2ccccc2cc2ccccc12)C(=O)C1CC(=O)N(C2CCCCCC2)C1` (configuration not stated), the IC50 is reported as 320 nM.

Each molecule was assayed against T1, Enoyl-[acyl-carrier-protein] reductase [NADH] (Mycobacterium tuberculosis). Conditions: 2.4 uM.
Description: Inhibition of Mycobacterium tuberculosis InhA at 2.4 uM
Work on `O=C(Nc1cc(-c2ccccc2)c(O)c(-c2ccccc2)c1)C1CC(=O)N(C2CCCCC2)C1` (stereo in doubt; p64a) yielded an inhibition of 72.7%.
